Assay results published in patent US20230114241A1, “METHODS OF TREATING EPILEPSY USING THE SAME” (Trevena, Inc., priority 2019, published 2023).

What was measured:
[1] = molecular target: T1, human sphingosine-1-phosphate receptor 1 (S1P1) (Homo sapiens, UniProt P21453); test: Inhibition of cAMP production (HTRF cAMP HiRange), S1P1 CHO-K1 cells; format: cell-based; conditions: for EC50: read-out: hS1P1 CAMP pEC50 (converted); for Emax: CHO-K1, efficacy normalized to maximum efficacy of fingolimod, read-out: hS1P1 CAMP SPAN
Outline: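 Intracellular cAMP changes read by TR-FRET (HTRF HiRange, 1 h room temperature) after 30 min compound exposure at 37 °C. Cells: overnight-plated CHO-K1 stably expressing tagged human S1P1 with EA-β-arrestin2. Responses normalized to fingolimod.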
Target sequence in this assay (P21453 whole entry): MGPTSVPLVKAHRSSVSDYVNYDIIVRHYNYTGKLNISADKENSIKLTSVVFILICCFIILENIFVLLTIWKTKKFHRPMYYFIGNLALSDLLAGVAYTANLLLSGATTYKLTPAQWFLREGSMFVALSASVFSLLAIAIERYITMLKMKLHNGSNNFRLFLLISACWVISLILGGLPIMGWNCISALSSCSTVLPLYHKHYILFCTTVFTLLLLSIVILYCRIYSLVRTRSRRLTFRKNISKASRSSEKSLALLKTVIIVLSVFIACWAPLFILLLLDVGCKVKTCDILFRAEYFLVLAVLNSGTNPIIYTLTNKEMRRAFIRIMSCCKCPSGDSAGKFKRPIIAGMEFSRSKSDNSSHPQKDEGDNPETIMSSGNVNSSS

[2] = tested on: peripheral blood lymphocytes; test: Lymphopenia: peripheral blood lymphocyte counts, acute and chronic s.c. dosing; format: in vivo; conditions: c57bl/6 mice; for Lymphopenia effect (change in peripheral blood lymphocytes): vs vehicle
Description: Compounds were tested for changes in peripheral blood lymphocytes in C57bl/6 mice. In acute studies, animals (n=5/group) were dosed subcutaneously with test compound at a dose of 3 mg/kg. Animals were sacrificed at specific time points and […] of whole blood was collected in EDTA (K2) Eppendorf tubes. Blood was stored on ice and shipped immediately overnight delivery to Charles River Laboratories for analysis. CRL ran samples through their WBC/differential panel on an Advia 120 instrument. We received peripheral lymphocyte counts (10^3 cells/μl) for each blood sample. Treatment group means were compared to a vehicle treatment group for statistical significance. In chronic studies, animals (n=6-8/group) were dosed subcutaneously for three to seven days with test compound at doses that were at least 5-fold higher than the efficacious dose in pharmacology/behavioral assays. On the last day, animals were sacrificed 45 minutes to 6 hrs after the final dose. Whole blood was collected and analyzed as described for acute studies. […]

[3] = molecular target: T1, human sphingosine-1-phosphate receptor 1 (S1P1); test: β-Arrestin2 recruitment assay (PathHunter), S1P1 CHO-K1 cells; format: cell-based; conditions: for Emax: efficacy normalized to maximum efficacy of fingolimod, read-out: hS1P1 B-arrestin2 SPAN; for EC50: β-arrestin2 recruitment, read-out: hS1P1 B-arrestin2 pEC50 (converted)
Outline: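 Agonist-driven β-arrestin2 recruitment measured by β-galactosidase complementation after 60 min compound exposure at 37 °C and 1 h detection at room temperature. Cells: stable CHO-K1 line expressing tagged human S1P1 with EA-β-arrestin2, plated the night before. Data expressed relative to fingolimod.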
Target sequence in this assay (P21453 whole entry): as above
Target sequence in this assay (P32121 whole entry partner): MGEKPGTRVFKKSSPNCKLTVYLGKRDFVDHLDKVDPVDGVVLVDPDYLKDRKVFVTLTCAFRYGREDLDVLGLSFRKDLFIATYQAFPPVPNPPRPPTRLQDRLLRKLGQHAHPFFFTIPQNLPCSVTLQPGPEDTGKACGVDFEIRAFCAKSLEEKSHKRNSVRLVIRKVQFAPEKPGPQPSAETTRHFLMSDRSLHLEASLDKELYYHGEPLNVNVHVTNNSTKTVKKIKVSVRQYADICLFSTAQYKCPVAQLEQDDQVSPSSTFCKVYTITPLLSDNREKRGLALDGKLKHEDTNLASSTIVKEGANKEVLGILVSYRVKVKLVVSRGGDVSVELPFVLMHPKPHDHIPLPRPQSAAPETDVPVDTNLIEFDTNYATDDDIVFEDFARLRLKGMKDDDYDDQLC

[4] = inhibition of cAMP production, potency
[5] = CHO-K1, β-arrestin2 recruitment
[6] = inhibition of cAMP production, S1P1

| EC50 [1, 4] [nM] | Lymphopenia effect (peripheral blood lymphocytes) ([2]; 6 mg/kg sc, 7 days) | Emax ([1]; inhibition of cAMP production) [%] | Emax [3, 5] [%] | SMILES | other results |
| --- | --- | --- | --- | --- | --- |
| > 316 | no change: 6 mg/kg, 7 days |  |  | Cc1cnccc1-c1nc(-c2ccc3c(c2)nnn3C(C)C)no1 [Compound 8, 3-(1-isopropyl-1H-benzo[d][1,2,3]triazol-5-yl)-5-(3-methylpyridin-4-yl)-1,2,4-oxadiazole] |  |
| > 316 | no change: 6 mg/kg, 7 days | < 75 | < 75 | COc1cccc(-c2noc(-c3ccc4c(c3)nnn4C(C)C)n2)n1 [Compound 19, 5-[3-(6-methoxypyridin-2-yl)-1,2,4-oxadiazol-5-yl]-1-(propan-2-yl)-1H-1,2,3-benzotriazole] | EC50 ([3]; potency): < 10000 nM |
|  |  |  |  | CC(C)Oc1ccc(-c2nc(-c3ccc4c(c3)nnn4C(C)C)no2)cc1C#N [Compound 22, 2-isopropoxy-5-(3-(1-isopropyl-1H-benzo[d] [1,2,3]triazol-5-yl)-1,2,4-oxadiazol-5-yl)benzonitrile] | Lymphopenia effect (peripheral blood lymphocytes) ([2]; 3 mg/kg sc, 7 days): no change: 3 mg/kg, 7 days |
| < 316 | no change: 6 mg/kg, 7 days | > 75 | > 75 | COc1ccc(-c2noc(-c3ccc4c(c3)nnn4C(C)C)n2)c(C)c1 [Compound 55, 5-(1-isopropyl-1H-benzo[d][1,2,3]triazol-5-yl)-3-(4-methoxy-2-methylphenyl)-1,2,4-oxadiazole] | EC50 ([3]; potency): < 10000 nM |
| < 316 | no change: 6 mg/kg, 7 days | > 75 | > 75 | Cc1ccccc1-c1noc(-c2ccc3c(c2)nnn3C(C)(C)C)n1 [Compound 59, 1-tert-butyl-5-[3-(2-methylphenyl)-1,2,4-oxadiazol-5-yl]-1H-1,2,3-benzotriazole] | EC50 ([3]; potency): < 10000 nM |
| < 316 | no change: 6 mg/kg, 7 days |  |  | Cc1ccccc1-c1noc(-c2ccc3c(c2)nnn3CC(C)C)n1 [Compound 96, 5-[3-(2-methylphenyl)-1,2,4-oxadiazol-5-yl]-1-(2-methylpropyl)-1H-1,2,3-benzotriazole] |  |
| < 316 | no change: 6 mg/kg, 7 days |  |  | CCC1(CC)CC(=O)c2cc(-c3nc(-c4cccnc4)no3)ccc2O1 [Compound 103, 2,2-diethyl-6-[3-(pyridin-3-yl)-1,2,4-oxadiazol-5-yl]-3,4-dihydro-2H-1-benzopyran-4-one] |  |
| < 316 | no change: 6 mg/kg, 7 days |  |  | Cc1cnccc1-c1nc(-c2ccc3c(ccn3C(C)C)c2)no1 [Compound 142, 3-(1-isopropyl-1H-indol-5-yl)-5-(3-methylpyridin-4-yl)-1,2,4-oxadiazole] |  |
| < 316 | no change: 6 mg/kg, 7 days |  |  | CCC1(CC)CC(=O)c2cc(-c3nc(-c4cccnc4OC)no3)ccc2O1 [Compound 147, 2,2-diethyl-6-(3-(2-methoxypyridin-3-yl)-1,2,4-oxadiazol-5-yl)chroman-4-one] |  |
| < 316 | no change: 6 mg/kg, 7 days | > 75 | > 75 | Cc1ccsc1-c1noc(-c2ccc3c(c2)nnn3C(C)C)n1 [Compound 169, 5-[3-(3-methyl-thiophen-2-yl)-1,2,4-oxadiazol-5-yl]-1-(propan-2-yl)-1H-1,2,3-benzotriazole] | EC50 ([3]; potency): < 10000 nM |
| > 316 | no change: 6 mg/kg, 7 days | < 75 | < 75 | Cc1cnc(-c2nc(-c3ccc4c(c3)nnn4C(C)C)no2)cn1 [Compound 234, 3-(1-isopropyl-1H-benzo[d][1,2,3]triazol-5-yl)-5-(5-methyl-pyrazin-2-yl)-1,2,4-oxadiazole] | EC50 ([3]; potency): > 10000 nM |
| < 316 | no change: 6 mg/kg, 7 days |  |  | Cc1ccccc1-c1noc(-c2ccc3c(c2)nnn3C(C)C)n1 [Compound 293, 5-[3-(2-methylphenyl)-1,2,4-oxadiazol-5-yl]-1-(propan-2-yl)-1H-1,2,3-benzotriazole] |  |
| < 316 | no change: 6 mg/kg, 7 days | > 75 | > 75 | CC(F)(F)CNc1ccc(-c2nnc(-c3ccc4[nH]ncc4c3)o2)cc1C#N [Compound 355, 2-[(2,2-difluoro-propyl)amino]-5-[5-(1H-indazol-5-yl)-1,3,4-oxadiazol-2-yl]benzonitrile] |  |
| < 316 | no change: 6 mg/kg, 7 days |  |  | CC(C)Nc1ccc(-c2nnc(-c3ccc4[nH]cnc4c3)o2)cc1C#N [Compound 356, 5-[5-(1H-1,3-benzodiazol-5-yl)-1,3,4-oxadiazol-2-yl]-2-[(propan-2-yl)amino]benzonitrile] |  |
|  |  |  |  | CN1C(=O)CCc2cc(-c3nc(-c4cccnc4)no3)ccc21 [Compound 384, 1-methyl-6-[3-(pyridin-3-yl)-1,2,4-oxadiazol-5-yl]-1,2,3,4-tetrahydroquinolin-2-one] | Emax [1]: > 75%; EC50 [1, 6]: > 316 nM; Emax ([3]; CHO-K1): < 75%; EC50 ([3]; S1P1): > 10000 nM; Lymphopenia effect (peripheral blood lymphocytes) ([2]; 3 mg/kg sc, 45 min and 2 hr): no change: 3 mg/kg; 45 min and 2 hr |
|  | no change: 6 mg/kg, 7 days |  |  | CC(C)n1nnc2cc(-c3nc(-c4ccncc4C(F)(F)F)no3)ccc21 [Compound 455, 1-(propan-2-yl)-5-{3-[3-(trifluoromethyl)pyridin-4-yl]-1,2,4-oxadiazol-5-yl}-1H-1,2,3-benzotriazole] | EC50 [1, 6]: < 316 nM |
|  | no change: 6 mg/kg, 7 days |  |  | CC(F)(F)CNc1ccc(-c2nnc(-c3ccc4[nH]cnc4c3)o2)cc1C#N [Compound 520, 5-[5-(1H-1,3-benzodiazol-5-yl)-1,3,4-oxadiazol-2-yl]-2-[(2,2-difluoro-propyl)amino]benzonitrile] | EC50 [1, 6]: < 316 nM |
|  | no change: 6 mg/kg, 7 days |  |  | CCC1(CC)CC(=O)c2cc(-c3nc(-c4ccc(NC(C)=O)cc4OC)no3)ccc2O1 [Compound 531, N-{4-[5-(2,2-diethyl-4-oxo-3,4-dihydro-2H-1-benzopyran-6-yl)-1,2,4-oxadiazol-3-yl]-3-methoxyphenyl} acetamide] | Emax [1]: > 75%; EC50 [1, 6]: < 316 nM; Emax ([3]; CHO-K1): > 75%; EC50 ([3]; S1P1): < 10000 nM |
|  |  |  |  | COc1cc(NC(C)=O)ccc1-c1noc(-c2ccc(NC(C)C)c(C#N)c2)n1 [Compound 731, N-[4-(5-{3-cyano-4-[(propan-2-yl)amino]phenyl}-1,2,4-oxadiazol-3-yl)-3-methoxyphenyl]acetamide] | Lymphopenia effect (change in peripheral blood lymphocytes) ([2]; 6 mg/kg sc, 7 days): −78% stat sig: 6 mg/kg, 7 days |
|  |  |  |  | CC(C)Nc1ccc(-c2ncc(-c3cccnc3)cn2)cc1C#N [Compound 737, 2-(isopropylamino)-5-(5-(pyridin-3-yl)pyrimidin-2-yl)benzonitrile] | Lymphopenia effect (change in peripheral blood lymphocytes) ([2]; 6 mg/kg sc, 7 days): −40% not stat sig: 6 mg/kg, 7 days |
